Reference: publication PMC10994617, “In silico study, synthesis, and antineoplastic evaluation of thiazole-based sulfonamide derivatives and their silver complexes with expected carbonic anhydrase inhibitory activity” (Journal of Medicine and Life, 2023)
Read-outs that look alike come from different tables or passages of the source.

What was measured:
MCF10A = test: MTT cytotoxicity assay, MCF10A normal breast epithelial cell line; format: cell-based; details: MCF10A normal cells, read-out: MCF10A IC50 (µM) ± SD
Excerpt: (§1) To evaluate the antitumor activity of the newly synthesized sulfonamide carbonic anhydrase inhibitors (compounds M3, M4, and M5), we employed cell line assays using 3-(4,5-dimethylthiazol-2-yl)-2,5-diphenyltetrazolium (MTT). Two cell types were utilized in this study: MCF-7, a breast cancer cell line, to assess the effects of the compounds on cancer cells, and MCF10A, a normal breast epithelial cell line, to evaluate the effects on non-cancerous cells. These cell lines were procured from the Iranian National Cell Bank at the Pasteur Institute. MCF-7 cells were cultured in RPMI-1640 medium, while MCF10A cells were cultured in DMEM: F12 medium. Both media were supplemented with 10% fetal bovine serum (FBS), followed by the addition of antibiotics (100 µg/ml streptomycin and 100 units/ml penicillin). The cells were maintained in a humidified atmosphere at 37°C with 5% carbon dioxide. For cell passaging, a trypsin/EDTA solution (Gibco) and phosphate-buffered saline (PBS) were utilized. Cell viability was assessed using MTT from Sigma-Aldrich. Each type of cell (MCF-7 and MCF10A) was cultured separately in 96-well plates (1.4 × 10^4 cells per well with 200 µl of fresh medium) after a full day had passed (temperature of 37°C in a 5% CO2 environment). The supernatant was removed, and MTT solution at a concentration of 200 µl was added to each well and then incubated for four hours at a temperature of 37°C. After the end of the incubation period and to dissolve the formazan crystals, 100 µl of dimethyl sulfoxide (DMSO) was added, and the plate was left in a shaker at a temperature of 37°C until it was confirmed that all the crystals had completely dissolved. An ELISA reader (Model Wave xs2, BioTek) was used to measure cell vitality by absorption at 570 nm and calculate the IC50 values.

MCF-7 = test: MTT cytotoxicity assay, MCF-7 breast cancer cell line; format: cell-based, human; details: MCF-7, MTT
Excerpt: as §1

[1] = Homo sapiens, MCF7, read-out: MCF-7 IC50 (µM) ± SD

Row | SMILES | IC50 (MCF10A; Homo sapiens, MCF-10A) | IC50 (MCF-7; Homo sapiens, MCF7, read-out: IC50 against MCF-7 cells) | IC50 (MCF-7; [1]) | IC50 (MCF10A) | IC50 (MCF-7; read-out: MCF-7 IC50 (µM) ± SD)
1 | CN(C)c1ccc(/C=N/c2nc(Nc3ccc(S(N)(=O)=O)cc3)cs2)cc1 [Compound M4] | 52.5 ± 3.31 µM | 77.4 mg/L | 77.4 ± 3.31 µM | – | –
2 | NS(=O)(=O)c1ccc(Nc2csc(N=Cc3ccc(O)cc3)n2)cc1 (stereo in doubt) [Compound M3, (Z)-4-((2-((4-hydroxybenzylidene)amino)thiazol-4-yl)amino) benzene sulfonamide] | 135 ± 4.19 µM | – | 87.7 ± 2.16 µM | – | –
3 | N.N.[Cl][Pt][Cl] [Cisplatin, reference compound] | – | – | – | 13.6 ± 3.45 µM | 15.1 ± 2.25 µM
